# Test results as given in patent US4174407A, “Antiviral agent” (Sumitomo Chemical Company, Limited, priority 1978, dated 1979).
# Counter-ions that a name gives are not always drawn. Like-named read-outs stand apart in the source and are kept apart here.
# Key:
# in vivo = details: mouse
# [1] = test system: herpes simplex virus type 1 (HF strain); assay: Effects on herpeskeratitis, eye lotion in rabbits (cure period and toxicity); type: in vivo; details: 0.5% eye lotion in 1.4% polyvinyl alcohol, every two hours, five times a day, 7 days; rabbit eye
# Experimental: (§1) Therapeutic effects were determined by using two experimental infections as follows.
# The corneal epithelium of each eye of rabbit was anesthetized and scratched, then each eye was infected with herpes simplex virus type 1 (HF strain). One of each infected eyes was used for treatment with the compound A and the other was used for viral control. One half % eye lotion of the compound A in 1.4% polyvinyl alcohol was applied every two hours, five times a day during 7 days 12 hr. after virus infection. Each eye was daily examined and scored the lesion on the conjunctiva, cornea and the iris for 7 days. In this score 0 means normal and 4 means maximal severity. The eyes scratched but not infected with virus were similarly treated with compound A in parallel as toxicity control.
# [2] = test system: herpes simplex virus type 1 HF strain; assay: Effects on herpesencephalitis, intracerebrally infected mice; type: in vivo; details: for Survival ratio (no. of survivors/no. of total mice): 21st day, control 0/10
# Experimental: as §1
# Mice were anesthetized with ether and were infected intracerabrally (i.c.) with 30 LD50 of herpes simplex virus type 1 HF strain. Infected mice were treated with various therapeutic schedules. The antiviral effects of the compound A was determined by comparing the number of survivors at 3 weeks after viral infection and the mean survival days of the drug-treatedand placebo-treated animals.
# (a) Dose of administration
# (b) Schedule of administration of each route was as follows, i.c. (intracerebrally): single administration simultaneously with virus infection p.o (per os): twice administration per day during 8.5 days from 4 hr. after virus infection s.c. (subcutaneously): twice administration per day during 8.5 days from 4 hr. after virus infection i.v. (intravenously): single administration at 3 hr. after virus infection
# (c) The animals were examined for 21 days and deaths occuring were recorded.
# (d) Survivors at 21st day.
# Influenza Ao PR/8 = type: in vivo, ddY male mice; details: 7 days after infection, control 4.8
# influenza virus = assay: Antiviral activities on influenza virus (general statement)
# Newcastle disease virus = details: Aigami et al., J. Med. Chem. 19, 536, 1976; cited from earlier work
# [3] = Cytotoxicity in KB cells by microscopic examination (MCC); details: human
# [4] = test system: herpes simplex type 1 (HF strain); assay: Tube dilution method, virus-induced cytopathic effect in tissue culture (antiviral MIC); type: cell-based; details: for MIC: read-out: Minimum virus growth inhibition concentration (MIC)
# herpes virus = assay: Antiviral activities on herpes virus (general statement)
# [5] = Cytotoxicity in HeLa cells by microscopic examination (MCC); details: human
# DNA virus = details: general knowledge; cited from earlier work
# [6] = host cells KB, 1000 TCD50, 72 hr, 37° C.
structure (smiles),measurement,setting,value
"NC12CCCC3CC(CCC31)C2 (centres unmarked) [Compound A, 3-Amino-4-homoisotwistane hydrochloride]",LD50,in vivo; iv,32 mg/kg
same,LD50,in vivo; po,300 mg/kg
same,cure period as compared with control,[1],did not prolong the cure period as compared with control
same,Survival ratio (no. of survivors/no. of total mice),"[2]; 5 mg/kg i.c., single, simultaneously with virus infection",7/10
same,Mean no. of survival days,"[2]; 5 mg/kg i.c., single, simultaneously with virus infection, control 5.6",7.2 days
same,Survival ratio (no. of survivors/no. of total mice),"[2]; 10 mg/kg i.v., single at 3 hr. after infection",2/10
same,Mean no. of survival days,"[2]; 10 mg/kg i.v., single at 3 hr. after infection, control 6.2",8.0 days
same,Survival ratio (no. of survivors/no. of total mice),"[2]; 100 mg/kg p.o., twice per day during 8.5 days from 4 hr. after infection",3/10
same,Mean no. of survival days,"[2]; 100 mg/kg p.o., twice per day during 8.5 days from 4 hr. after infection, control 5.9",7.8 days
same,Survival ratio (no. of survivors/no. of total mice),"[2]; 100 mg/kg s.c., twice per day during 8.5 days from 4 hr. after infection",5/10
same,Mean no. of survival days,"[2]; 100 mg/kg s.c., twice per day during 8.5 days from 4 hr. after infection, control 5.8",7.6 days
same,Lung Lesion Score,"Influenza Ao PR/8; 7.5 mg/kg s.c., no significance mark",4.6
same,Lung Lesion Score,"Influenza Ao PR/8; 15 mg/kg s.c., * P<0.05 (Student's t test)",4.0
same,Lung Lesion Score,"Influenza Ao PR/8; 30 mg/kg s.c., * P<0.05 (Student's t test)",4.2
same,antiviral activities on influenza virus,influenza virus,very strong antiviral activities
same,antiviral effects on Newcastle disease virus,Newcastle disease virus,antiviral effects on Newcastle disease virus
same,MCC at 72 h,[3],50 µg/mL
same,MIC,"[4]; Human alphaherpesvirus 1, host cells HeLa, 1000 TCD50, 72 hr, 37° C.",5 µg/mL
same,Minimum virus growth inhibition concentration (MIC),[4]; [6],5 µg/mL
same,"antiviral effects on herpes virus and so on, compared with tromantadine",herpes virus; comparison with tromantadine,much superior to those of tromantadine
same,antiviral activities on herpes virus,herpes virus; general statement,very strong antiviral activities
same,MCC at 72 h,[5],50 µg/mL
"CN(C)CCOCC(=O)NC12CC3CC(CC(C3)C1)C2 [Tromantadine, tromantadine]",anti DNA viral activities,DNA virus,known to show an anti DNA viral activities
same,MCC at 72 h,[3],> 50 µg/mL
same,MIC,"[4]; Human alphaherpesvirus 1, host cells KB, 1000 TCD50, 72 hr, 37° C.",25 µg/mL
"NC12CC3CC(CC(C3)C1)C2 [Amantadine HCl, amantadine hydrochloride, reference compound]",Lung Lesion Score,"Influenza Ao PR/8; 10 mg/kg s.c., * P<0.05 (Student's t test)",4.3
same,Lung Lesion Score,"Influenza Ao PR/8; 25 mg/kg s.c., * P<0.05 (Student's t test)",4.1
same,Lung Lesion Score,"Influenza Ao PR/8; 50 mg/kg s.c., * P<0.05 (Student's t test)",4.0
same,MCC at 72 h,[3],> 50 µg/mL
same,MIC,"[4]; Human alphaherpesvirus 1, 72 h",50 µg/mL
same,Minimum virus growth inhibition concentration (MIC),[4]; [6],50 µg/mL
same,MCC at 72 h,[5],> 50 µg/mL
